Measurements as given in patent US9125937B2, “Labelled analogues of halobenzamides as multimodal radiopharmaceuticals and their precursors” (INSTITUT NATIONAL DE LA SANTE ET DE LA RECHERCHE MEDICALE …, priority 2008, dated 2015).
Several values for one entry are separate records, joined by “and”; a condition that tells them apart may be missing. Equal entries are not always repeated. Structures can show the parent of a compound that is named as a salt. Each block holds one compound with its values, some of them ahead of it.

Assays:
B16 F0 murine melanoma = test: Biodistribution study by planar scintigraphic imaging (gamma camera), tumour uptake quantification; assay type: in vivo, C57BL6 male mice; conditions: i.v.
Method: (§1) Tumour Implantation. For transplantation, cells grown in monolayer culture to confluence were trypsinized and washed with phosphate buffer saline (PBS). They were resuspended in PBS and each mouse received 0.1 mL subcutaneously (3×10^5 cells) on the left flank in order to allow a tumour growth on the body side. Ten days later, the tumours became palpable with a percentage of tumour take of 98-100%.
The in vivo biodistribution and kinetic profile of each radiolabelled (iodine-125) compound have been studied in C57BL6 male mice bearing the B16 F0 murine melanoma by repeated planar scintigraphic imaging which allows the tumour uptake follow-up in the same animal.
Gamma Camera. In vivo radionuclide imaging was performed using a γ IMAGER (Biospace Mesures, Paris, France) especially dedicated for small animal, a scintigraphic camera with a continuous 4 mm thick×120 mm diameter CsI(Na) crystal, a position-sensitive Hamamatsu R3292 photomultiplier and a 10 cm field of view.
Imaging Protocol. On day 14 after tumour implantation (tumour weight 0.25±0.10 g) each [^125I]-radioiodinated compound was administered intravenously via a tail vein (0.1 μmol, range 3.7 to 7 MBq/animal) in three mice for each compound. At different times after administration (1, 3, 6, 24, 72 hours, 5, 7, 10 and 15 days), mice were anesthetized with 0.2 mL, for a 20 g mouse, of a ketamine-xylazine mixture in saline (1-0.25 mL for 5 mL) by i. p. administration, and repeated planar scintigraphic whole body imaging (mouse laying in anterior position on the camera field) were performed by an acquisition time of 10 min. For this study, the camera was equipped with a 1.8/0.2/20 collimator (hole diameter/septum thickness/height in mm).
Tumoural Radioactivity Quantification Approach. The injected activity to each mouse was determined from scintigraphic imaging of the syringe before and after the injection using the γ-IMAGER.
Regions of interest (ROIs) were delineated over the whole body image: whole body uptake area (or the various fixing areas, eyes, thyroid and abdomen) and one for the tumour uptake area. In the various ROIs, the activity (cpm) was quantified using the Biospace measures γ VISION+software. These values were normalized to the injected dose. For the tumour, the activity was also normalized to the tumour weight. Firstly, the volume was calculated from the two dimensions caliper measurement (Bissery, M. C.; Guenard, D.; Gueritte-Voegelin, F.; Lavelle, F. Experimental antitumour activity of taxotere (RP 56976, NSC 628503) a taxol analogue. Cancer res. 1991, 51, 4845-4852). Secondly, the weight was determined from the volume value corrected by a factor determined from a large panel of experiments (Weight g=volume mm^3×0.6). The data were expressed as % ID/g of B 16F0 melanoma tumour.

B16F0 melanoma tumour [1] = test: Tumour uptake by whole body sectioning autoradiography; assay type: in vivo, mice
Description: (ii) A comparison camera quantified in vivo values with values determined using the whole body sectioning conventional autoradiographic method has been done for several compounds. The correlation coefficient obtained between the two methods was 0.92.
(§2) (iii) For the compound N-(2-diethylaminoethyl)-6-iodoquinoxaline-2-carboxamide, which is described in PCT application n°PCT/IB2007/052992 as compound n°45 in table I of said patent application (hereinafter called “ICF01012”), the tumour uptake has been quantified by 3 methods: camera imaging, autoradiography and counting of tumour tissue after dissection (gamma counter), values are summarized below.

B16F0 melanoma tumour [2] = test: Tumour uptake by counting of tumour tissue after dissection (gamma counter); assay type: in vivo, mice
Description: as §2

[3] = system: subcutaneous B16F0 melanoma; test: Radionuclide therapy experiment (anti-tumoural efficacy); assay type: in vivo, C57BL/6J mice
Method: Animals. All experiments were carried out in accordance with the institution recommendations based on the guide for the care and use of laboratory animals. For therapy experiment, we used 6- to 8-week-old C57BL/6J male mice (Charles River Laboratories).
as §1
[^131I]11 treatment was administered intravenously at days 6 and 10 after tumour implantation (2×18.5 MBq) in groups of 10 mice. In the same conditions untreated-animals were studied. From three days before the treatment and along the experiment, lugol's iodine solution was added in the two mice groups alimentation to block iodine thyroid uptake. To monitor tumoral growth, tumor volume in mm^3 was calculated twice a week from the measurement of two perpendicular diameters using a caliper according to the formula L×S^2/2 where L and S are the largest and smallest diameters in mm respectively. At day 19 of the experiment, mice were sacrificed. Tumours were removed, dissected and weighted.
Statistical Analyses. In experiment data are given as mean+SEM and were analyzed by the Student or ANOVA tests.
Anti-tumoural Efficacy of Targeted Radionuclide Therapy. To assess the therapeutic efficacy of compound [^131I]11 in C57BL/6J mice bearing subcutaneous B16F0 melanoma cells, we injected twice 18.5 MBq [^131I]11 into group of 10 mice. […] The body weight of mice in all groups was stable (data not shown). The weight of tumours at 19 days were 2.29±1.03 g and 0.72±0.28 g respectively for controls and treated.

SMILES: CCN(CCNC(=O)c1cnc2cc(I)ccc2n1)CCNc1cccc(F)n1.Cl.Cl
- melting point: 99 to 101 °C (dec.)

SMILES: CCN(CCNC(=O)c1ccnc(F)c1)CCNC(=O)c1cnc2cc(I)ccc2n1.Cl.Cl
- melting point: 157 to 159 °C

SMILES: CCN(CCNC(=O)c1ccnc(F)c1)CCNC(=O)c1cnc2cc(I)ccc2n1 [Compound 39, N-[2-[N-ethyl-N-[2-[[(2-fluoropyridin-4-yl)carbonyl]amino]ethyl]amino]ethyl]-6-iodoquinoxaline-2-carboxamide]
- melting point: 146 to 148 °C

SMILES: CCN(CCNC(=O)c1cnc2cc(I)ccc2n1)CCNc1cccc(Br)n1 [Compound 63, N-[2-[N-[2-[(6-bromopyridin-2-yl)amino]ethyl]-N-(ethyl)amino]ethyl]-6-iodoquinoxaline-2-carboxamide]
- melting point: 49 to 51 °C and 50 °C

SMILES: CCN(CC)Cc1ccnc(F)c1CNC(=O)c1cnc2cc(I)ccc2n1 [Compound 91, N-[[4-(N,N-diethylaminomethyl)-2-fluoropyridin-3-yl]methyl]-6-iodoquinoxaline-2-carboxamide]
- melting point: 147 to 149 °C

SMILES: CCN(CC)CCNC(=O)c1cnc2ccc(I)cc2c1F [Compound 96, N-[2-(diethylamino)ethyl]-4-fluoro-6-iodoquinoline-3-carboxamide]
- melting point: 88 to 90 °C and 89 °C

SMILES: CCN(CC)CCNC(=O)c1cc(I)cc2c(F)ccnc12 [Compound 102, N-[2-(diethylamino)ethyl]-4-fluoro-6-iodoquinoline-8-carboxamide]
- melting point: 80 °C and 79 to 81 °C

SMILES: CCN(CC)CCNC(=O)c1cc(F)c2cc(I)ccc2n1 [Compound 106, N-[2-(diethylamino)ethyl]-4-fluoro-6-iodoquinoline-2-carboxamide]
- melting point: 59 °C and 58 to 60 °C

SMILES: CCN(CC)CCNC(=O)c1cc(F)c2cc([125I])ccc2n1 [[^125I]106, [^125I]N-[2-(diethylamino)ethyl]-4-fluoro-6-iodoquinoline-2-carboxamide]
- Radioactive concentration in tumour (tumoural uptake) (B16 F0 murine melanoma; 1 H post injection): 6.0 ± 1.3 % ID/g
- Radioactive concentration in tumour (tumoural uptake) (B16 F0 murine melanoma; 3 H post injection): 8.0 ± 0.9 % ID/g
- Radioactive concentration in tumour (tumoural uptake) (B16 F0 murine melanoma; 6 H post injection): 9.5 ± 1.8 % ID/g
- Radioactive concentration in tumour (tumoural uptake) (B16 F0 murine melanoma; 24 H post injection): 8.4 ± 0.8 % ID/g
- Radioactive concentration in tumour (tumoural uptake) (B16 F0 murine melanoma; 72 H post injection): 4.9 ± 1.2 % ID/g
- Radioactive concentration in tumour (tumoural uptake) (B16 F0 murine melanoma; 120 H post injection): 3.0 ± 0.1 % ID/g
- Radioactive concentration in tumour (tumoural uptake) (B16 F0 murine melanoma; 168 H post injection): 2.3 ± 0.6 % ID/g
- Radioactive concentration in tumour (tumoural uptake) (B16 F0 murine melanoma; 240 H post injection): 1.5 ± 0.1 % ID/g
- Radioactive concentration in tumour (tumoural uptake) (B16 F0 murine melanoma; 360 H (15 days) post injection): 0.7 ± 0.1 % ID/g

SMILES: CCN(CC)CCNC(=O)c1cnc2cc([125I])ccc2n1 [[^125I]ICF01012, reference compound]
- Radioactive concentration in tumour (B16F0 melanoma tumour [1]; 1 H): 17 ± 11.1 % ID/g
- Radioactive concentration in tumour (B16F0 melanoma tumour [1]; 3 H): 27.7 ± 7.0 % ID/g
- Radioactive concentration in tumour (B16F0 melanoma tumour [1]; 6 H): 36.4 ± 7.6 % ID/g
- Radioactive concentration in tumour (B16F0 melanoma tumour [1]; 24 H): 21.7 ± 10.8 % ID/g
- Radioactive concentration in tumour (B16F0 melanoma tumour [1]; 72 H): 12.5 ± 1.6 % ID/g
- Radioactive concentration in tumour (tumoural uptake) (B16 F0 murine melanoma; 1 H post injection): 21.8 ± 6.6 % ID/g
- Radioactive concentration in tumour (tumoural uptake) (B16 F0 murine melanoma; 3 H post injection): 26.2 ± 6.6 % ID/g and 26.3 ± 6.6 % ID/g
- Radioactive concentration in tumour (tumoural uptake) (B16 F0 murine melanoma; 6 H post injection): 29.6 ± 8.4 % ID/g
- Radioactive concentration in tumour (tumoural uptake) (B16 F0 murine melanoma; 24 H post injection): 28.0 ± 8.1 % ID/g and 28.0 ± 8.2 % ID/g
- Radioactive concentration in tumour (tumoural uptake) (B16 F0 murine melanoma; 72 H post injection): 12.3 ± 3.7 % ID/g
- Radioactive concentration in tumour (tumoural uptake) (B16 F0 murine melanoma; 120 H post injection): 7.3 ± 3.6 % ID/g
- Radioactive concentration in tumour (tumoural uptake) (B16 F0 murine melanoma; 168 H post injection): 3.4 ± 0.3 % ID/g
- Radioactive concentration in tumour (tumoural uptake) (B16 F0 murine melanoma; 240 H post injection): 1.9 ± 0.4 % ID/g
- Radioactive concentration in tumour (B16F0 melanoma tumour [2]; 1 H): 14.9 ± 5.7 % ID/g
- Radioactive concentration in tumour (B16F0 melanoma tumour [2]; 3 H): 28.1 ± 8.9 % ID/g
- Radioactive concentration in tumour (B16F0 melanoma tumour [2]; 6 H): 29.9 ± 2.8 % ID/g
- Radioactive concentration in tumour (B16F0 melanoma tumour [2]; 24 H): 29.7 ± 3.1 % ID/g
- Radioactive concentration in tumour (B16F0 melanoma tumour [2]; 72 H): 11.4 ± 2.6 % ID/g

SMILES: CCN(CCNC(=O)c1cnc2cc([131I])ccc2n1)CCOc1cccnc1F [[^131I]11, [^131I]N-[2-[N-ethyl-N-[2-(2-fluoropyridin-3-yloxy)ethyl]amino]ethyl]-6-iodoquinoxaline-2-carboxamide dihydrochloride salt]
- Weight of tumours at 19 days ([3]; 2×18.5 MBq i.v. at days 6 and 10, controls 2.29±1.03 g, p=0.01): 0.72 ± 0.28 g
- Tumour doubling time ([3]; 2×18.5 MBq i.v. at days 6 and 10 after tumour implantation, untreated 2.82±0.30 days): 3.83 ± 0.34 days
- Body weight of mice ([3]; all groups, data not shown): stable
- Ratio T/C of tumour weight at 19 days ([3]; treated vs controls): 0.31
- Effect on B16F0 tumoural growth ([3]; tumour volume, p<0.001 vs untreated): significantly slowed the B16F0 tumoural growth

Results, then the compound that gave them:

- melting point: 99 to 101 °C (dec.)
SMILES: CCN(CCNC(=O)c1ccc2cc(I)ccc2n1)CCOc1cccnc1F.Cl.Cl

- melting point: 157 to 159 °C
SMILES: CCN(CCNC(=O)c1ccc2cc(I)ccc2c1)CCOc1cccnc1F.Cl

- melting point: 131 to 133 °C (dec.)
SMILES: CCN(CCNC(=O)c1ccc2cncc(I)c2n1)CCOc1cccnc1F.Cl.Cl

- melting point: 143 to 145 °C
SMILES: CCN(CCNC(=O)c1cn2cc(I)ccc2n1)CCOc1cccnc1F.Cl.Cl

- melting point: 127 to 129 °C (dec.)
SMILES: CCN(CCNC(=O)c1cccc2nc3cc(I)ccc3nc12)CCOc1cccnc1F.Cl.Cl
